The source made the active and inactive calls. The calls are words filed in the database; no cut-off is given here.
Columns and labels:
[1] = system: Plasmodium berghei; experiment: Antimalarial activity against Plasmodium berghei GFP ANKA infected in NMRI mice (Mus musculus) assessed as survival at 10 mg/kg, perorally administered through 7% Tween80/3% Ethanol formulation 24 hrs post infection for 3 days measured 96 hrs post infection; format: functional; conditions: route oral
[2] = system: Plasmodium falciparum; experiment: Antimalarial activity against Plasmodium falciparum 3D7 assessed as parasite growth inhibition at 8 nM after 6 hrs by [3H]hypoxanthin incorporation assay; format: functional
[3] = system: Plasmodium berghei; experiment: Antimalarial activity against Plasmodium berghei GFP ANKA infected in NMRI mice (Mus musculus) assessed as reduction in parasitaemia at 10 mg/kg, perorally administered as single dose 24 hrs post infection for 1 day measured 72 hrs post infection; format: functional; design: scale not given: the % may be the effect or the level left; conditions: route oral
[4] = system: Plasmodium berghei; experiment: Antimalarial activity against Plasmodium berghei GFP ANKA infected in NMRI mice (Mus musculus) assessed as reduction in parasitaemia at 30 mg/kg, perorally administered as single dose 24 hrs post infection for 1 day measured 72 hrs post infection; format: functional; design: scale not given: the % may be the effect or the level left; conditions: route oral
[5] = system: Plasmodium berghei; experiment: Antimalarial activity against Plasmodium berghei GFP ANKA infected in NMRI mice (Mus musculus) assessed as survival at 10 mg/kg, perorally administered as single dose as single dose 24 hrs post infection for 1 day measured 72 hrs post infection; format: functional; conditions: route oral
[6] = system: Plasmodium berghei; experiment: Antimalarial activity against Plasmodium berghei GFP ANKA infected in NMRI mice (Mus musculus) assessed as survival at 30 mg/kg, perorally administered as single dose 24 hrs post infection for 1 day measured 72 hrs post infection; format: functional; conditions: route oral
[7] = system: Plasmodium berghei; experiment: Antimalarial activity against Plasmodium berghei GFP ANKA infected in NMRI mice (Mus musculus) assessed as survival at 100 mg/kg, perorally administered as single dose 24 hrs post infection for 1 day measured 72 hrs post infection; format: functional; conditions: route oral
[8] = system: Plasmodium berghei; experiment: Antimalarial activity against Plasmodium berghei GFP ANKA infected in NMRI mice (Mus musculus) assessed as reduction in parasitaemia at 10 mg/kg, perorally administered through 7% Tween80/3% Ethanol formulation 24 hrs post infection for 3 days measured 96 hrs post infection; format: functional; design: scale not given: the % may be the effect or the level left; conditions: route oral
[9] = system: Plasmodium falciparum; experiment: Antimalarial activity against Plasmodium falciparum Dd2 after 72 hrs by SYBR green based fluorescence assay; format: functional, organism-based; conditions: Dd2, 72 h
[10] = system: Plasmodium falciparum; experiment: Antimalarial activity against NITD609-resistant Plasmodium falciparum Dd2 Clone1 bearing P-type ATPase4 I398F and P990R mutations after 72 hrs by SYBR green based fluorescence assay; format: functional, organism-based; conditions: Dd2, 72 h
[11] = system: Plasmodium falciparum; experiment: Antimalarial activity against NITD609-resistant Plasmodium falciparum Dd2 Clone2 bearing P-type ATPase4 T418N and P990R mutations after 72 hrs by SYBR green based fluorescence assay; format: functional, organism-based; conditions: Dd2, 72 h
[12] = system: Plasmodium falciparum; format: functional, organism-based; conditions: Dd2, 72 h
[13] = system: Plasmodium falciparum; experiment: Antimalarial activity against Plasmodium falciparum assessed as […] by SYBR green based fluorescence assay; format: functional, organism-based; conditions: for IC50: Plasmodium falciparum
[14] = system: Plasmodium falciparum; experiment: Inhibition of protein synthesis in NITD609-resistant Plasmodium falciparum Dd2 Clone1 within 1 hrs by [35S]Met/Cys incorporation assay; format: functional
[15] = system: Plasmodium falciparum; experiment: Inhibition of protein synthesis in NITD609-resistant Plasmodium falciparum Dd2 Clone3 within 1 hrs by [35S]Met/Cys incorporation assay; format: functional
[16] = system: Plasmodium falciparum; experiment: microbe, parasite or virus in culture; conditions: Dd2, 72 h
Description: Antimalarial activity against Plasmodium falciparum Dd2 containing attB site inserted in parasite genome and expressing parental ATP4 after 72 hrs by SYBR green based fluorescence assay

[17] = system: Plasmodium falciparum; experiment: microbe, parasite or virus in culture; conditions: Dd2, 72 h; remark: listed apart in the source
Description: Antimalarial activity against Plasmodium falciparum Dd2 containing attB site inserted in parasite genome and using EF1-alpha promoter driven expressing wild type ATP4 after 72 hrs by SYBR green based fluorescence assay

[18] = system: Plasmodium falciparum; experiment: microbe, parasite or virus in culture; conditions: Dd2, 72 h; remark: listed apart in the source
Description: Antimalarial activity against Plasmodium falciparum Dd2 containing attB site inserted in parasite genome and using EF1-alpha promoter driven expressing ATP4 D1247Y mutant after 72 hrs by SYBR green based fluorescence assay

[19] = system: Plasmodium falciparum; experiment: microbe, parasite or virus in culture; conditions: Dd2, 72 h; remark: listed apart in the source
Description: Antimalarial activity against Plasmodium falciparum Dd2 containing attB site inserted in parasite genome and using EF1-alpha promoter driven expressing ATP4 I398F/P990R mutant after 72 hrs by SYBR green based fluorescence assay

[20] = system: Plasmodium falciparum; experiment: microbe, parasite or virus in culture; conditions: Dd2, 72 h; remark: listed apart in the source
Description: Antimalarial activity against Plasmodium falciparum Dd2 containing attB site inserted in parasite genome and using CAM promoter driven expressing ATP4 D1247Y mutant after 72 hrs by SYBR green based fluorescence assay

[21] = system: Plasmodium falciparum; experiment: microbe, parasite or virus in culture; conditions: Dd2, 72 h; remark: listed apart in the source
Description: Antimalarial activity against Plasmodium falciparum Dd2 containing attB site inserted in parasite genome and using CAM promoter driven expressing ATP4 I398F/P990R mutant after 72 hrs by SYBR green based fluorescence assay

[22] = system: Plasmodium berghei; experiment: Antimalarial activity against Plasmodium berghei GFP ANKA infected in NMRI mice (Mus musculus) assessed as reduction in parasitaemia at 30 mg/kg, perorally administered through 7% Tween80/3% Ethanol formulation 24 hrs post infection for 3 days measured 96 hrs post infection; format: functional; design: scale not given: the % may be the effect or the level left; conditions: route oral
[23] = system: Plasmodium berghei; experiment: Antimalarial activity against Plasmodium berghei GFP ANKA infected in NMRI mice (Mus musculus) assessed as survival at 30 mg/kg, perorally administered through 7% Tween80/3% Ethanol formulation 24 hrs post infection for 3 days measured 96 hrs post infection; format: functional; conditions: route oral
[24] = system: Plasmodium berghei; experiment: Antimalarial activity against Plasmodium berghei GFP ANKA infected in NMRI mice (Mus musculus) assessed as reduction in parasitaemia dosed in ETPGS formulation 1 day post infection measured 72 hrs post infection; format: functional
[25] = system: Plasmodium berghei; experiment: Antimalarial activity against Plasmodium berghei GFP ANKA infected in NMRI mice (Mus musculus) assessed as reduction in parasitaemia dosed in 7% Tween80/3% ethanol formulation 1 day post infection measured 72 hrs post infection; format: functional
[26] = system: Plasmodium berghei; experiment: Antimalarial activity against Plasmodium berghei GFP ANKA infected in NMRI mice (Mus musculus) assessed as reduction in parasitaemia at 100 mg/kg, perorally administered as single dose 24 hrs post infection for 1 day measured 72 hrs post infection; format: functional; design: scale not given: the % may be the effect or the level left; conditions: route oral

With CO[C@H]1O[C@@H]2O[C@@]3(C)CC[C@H]4[C@H](C)CC[C@@H]([C@H]1C)[C@@]24OO3 the Survival [1] was 13.2 days, the inhibition at 0.008 µM [2] was greater than 90% and the Activity [3] was 81%. The Activity [4] was 97%, the mean survival time at 10 mg/kg [5] was 6.2 days and the Survival [6] was 6.9 days. It also gave a Survival [7] greater than 7.6 days and an Activity [8] of 99.7%.
COc1ccc(C[C@H]2NC[C@H](O)[C@H]2OC(C)=O)cc1 [ANISOMYCIN] showed an IC50 [9] of 9.1 nM, an IC50 [10] of 5.8 nM and an IC50 [11] of 9.2 nM. For the same compound, the IC50 ([12]; read-out: IC50) was 6.4 nM, the IC50 [13] was 25 nM and the inhibition [14] was “Active”. For the same compound, the inhibition [15] was “Active”.
C[C@@H]1CC[C@H]2[C@@H](C)C(=O)O[C@@H]3O[C@@]4(C)CC[C@@H]1[C@]32OO4 [ARTEMISININ] was tested, and the IC50 [10] was 13 nM, the IC50 [11] was 18 nM and the IC50 ([12]; read-out: IC50) was 16 nM. For the same compound, the “inhibition (INH)” value [13] was less than 25%, the IC50 [13] was 15 nM and the IC50 [16] was 15.4 nM. It also gave an IC50 [17] of 17.2 nM, an IC50 [18] of 19.8 nM and an IC50 [19] of 17.3 nM. It also gave an IC50 [20] of 16.2 nM and an IC50 [21] of 18 nM.
For C[C@H]1[C@H](OC(=O)CCC(=O)O)O[C@@H]2O[C@@]3(C)CC[C@H]4[C@H](C)CC[C@@H]1[C@@]24OO3 [ARTESUNATE], the Survival [1] was 6.5 days, the Activity [22] was 98% and the Survival [23] was 7.2 days. For the same compound, the Activity [3] was 70%, the Activity [4] was 89% and the mean survival time at 10 mg/kg [5] was 7.3 days. The Survival [7] was 6.7 days, the ED50 [24] was 6.2 mg/kg and the ED99 [25] was 135 mg/kg. For the same compound, the Activity [8] was 92%.
O=C1C(O)=C([C@H]2CC[C@H](c3ccc(Cl)cc3)CC2)C(=O)c2ccccc21 [ATOVAQUONE] gave an IC50 [9] of 0.8 nM, an IC50 [10] of 0.6 nM and an IC50 [11] of 0.8 nM. It also gave an IC50 ([12]; read-out: IC50) of 0.6 nM.
In the case of CCN(CC)CCCC(C)Nc1ccnc2cc(Cl)ccc12 (configuration not stated) [CHLOROQUINE], the Survival [1] is reported as 15.4 days, the Activity [22] is reported as 98.6% and the Survival [23] is reported as 18.8 days. For the same compound, the Activity [26] was greater than 99.9%, the mean survival time at 10 mg/kg [5] was 8 days and the Survival [6] was 8.7 days. It also gave a Survival [7] of 12 days, an ED50 [24] of 1.9 mg/kg and an ED99 [25] of 8.4 mg/kg.
C/C=C/[C@H]1O[C@@](O)([C@@H](C)[C@H](O)[C@H](C)[C@H]2OC(=O)/C(OC)=C/C(C)=C/[C@@H](C)[C@@H](O)[C@@H](CC)[C@@H](O)[C@H](C)C/C(C)=C/C=C/[C@@H]2OC)C[C@@H](O[C@H]2C[C@@H](O)[C@H](OC(N)=O)[C@@H](C)O2)[C@@H]1C [CONCANAMYCIN A] showed an IC50 [9] of 4.5 nM, an IC50 [10] of 7 nM and an IC50 [11] of 8 nM. The IC50 ([12]; read-out: IC50) was 7 nM.
C[C@@H]1C[C@@H]([C@H](O)CC2CC(=O)NC(=O)C2)C(=O)[C@@H](C)C1 [CYCLOHEXIMIDE] showed an IC50 [9] of 320 nM, an IC50 [10] of 287 nM and an IC50 [11] of 310 nM. The IC50 [12] was 301 nM, the IC50 [13] was 200 nM and the inhibition [14] was “Active”. For the same compound, the inhibition [15] was “Active”.
In the case of CC(=O)C1=C(O)[C@@H]2[C@H]3c4c[nH]c5cccc(c45)C[C@H]3C(C)(C)N2C1=O [CYCLOPIAZONIC ACID], the IC50 [9] is reported as 3420 nM, the IC50 [10] is reported as 3460 nM and the IC50 [11] is reported as 4160 nM. The IC50 ([12]; read-out: IC50) was 3240 nM.
OC(c1cc(C(F)(F)F)nc2c(C(F)(F)F)cccc12)C1CCCCN1 (configuration not stated) [MEFLOQUINE] showed a Survival [1] of 13.8 days, an Activity [22] of 99.9% and a Survival [23] of 14 days. The Activity [3] was 95%, the Activity [4] was 98% and the Activity [26] was 89%. The mean survival time at 10 mg/kg [5] was 15.2 days, the Survival [6] was 18.2 days and the Survival [7] was 28 days. It also gave an IC50 [10] of 6.7 nM, an IC50 [11] of 7 nM and an IC50 ([12]; read-out: IC50) of 8 nM. The “inhibition (INH)” value [13] was less than 25%, the ED50 [24] was 4.2 mg/kg and the ED99 [25] was 8.6 mg/kg. It also gave an Activity [8] of 99.9%, an IC50 [18] of 12.5 nM and an IC50 [19] of 14.1 nM. The IC50 [20] was 11 nM and the IC50 [21] was 12.9 nM.
In the case of CCc1nc(N)nc(N)c1-c1ccc(Cl)cc1 [PYRIMETHAMINE], the IC50 [9] is reported as greater than 20000 nM, the IC50 [10] is reported as greater than 20000 nM and the IC50 [11] is reported as greater than 20000 nM. For the same compound, the IC50 ([12]; read-out: IC50) was greater than 20000 nM.
C/C=C(/C)C(=O)O[C@H]1C(C)=C2[C@H]([C@@H]1OC(=O)CCCCCCC)[C@@](C)(OC(C)=O)C[C@H](OC(=O)CCC)[C@@]1(O)[C@H]2OC(=O)[C@@]1(C)O [THAPSIGARGIN] showed an IC50 [9] of 905 nM, an IC50 [10] of 813 nM and an IC50 [11] of 1110 nM. For the same compound, the IC50 ([12]; read-out: IC50) was 1050 nM.

Source: ChEMBL document CHEMBL1240532, “Spiroindolones, a potent compound class for the treatment of malaria” (Science, 2010)
